Legend:
Pyricularia oryzae = format: in vivo; conditions: blast of rice, 20 ppm in sprayed dilution
blast of rice = conditions: commercially available antibiotic chemical; cited from earlier work
[1] = system: Colletotrichum lagenarium; assay: Test on control effect on anthracnose in cucumber; format: in vivo; conditions: 1000 ppm in sprayed composition
Protocol: Cucumber seedlings (Sagami Hanpaku variety) planted one plant per pot were used for the test, and each test area included three pots. After seeding was carried out by using Kureha Soil, the pots were kept for 2 weeks in an air-conditioned green house (maximum daytime temperature=28° C., minimum night temperature=20° C., light illumination time=12 hours per day, light source=sunglow lamp) to grow the cucumber plants.
A chemical composition having a predetermined concentration, which was prepared according to the method described in Example 3 was sprayed on the plants by a spray gun and the plants were air-dried for 2 hours in a green house.
Spores of a pathogenic fungus causing anthracnose in cucumber (Colletotrichum lagenarium), which had been cultured for 10 days at 23° C. in an agar slant culture medium of sweet corn, were taken into sterilized water, and one drop of a spreader was added to 50 cc of the spore suspension. In an inoculation box, the spore suspension was sprayed on the plants in an amount of 50 cc per 50 seedling by a spray gun to effect inoculation. […]
The total number of disease spots on leaves of the plants of each area was counted and the control value was calculated according to the following formula: [formula]

plants = assay: Phytotoxicity (general statement); format: in vivo

Compound	Control Value (Pyricularia oryzae)	Specificity of controlling effect (blast of rice)	Control Value [1]	Phytotoxicity (plants)
CN(CC[C@H](N)CC(=O)N[C@H]1C=C[C@H](n2ccc(N)nc2=O)O[C@@H]1C(=O)O)C(=N)N [Blasticidin S, blasticidinS-benzylaminobenzene-sulfonate]	95%	specific effect on blast of rice alone	–	–
manganous ethylene1,2-bis-dithiocarbomate- [Maneb-Dithane]	–	–	95%	causes phytotoxicity
